One data set relates to T1, BAM complex.
T1 construct: made in house; host or cells: E. coli BL21(DE3), strain obtained from Xinmiao Fu, Fujian Normal University
In words: SPR binding kinetics to BAM complex. More on the design: species or system E. coli. Particulars: Biacore T200, 25 °C, multi-cycle kinetics, 1:1 model; for ka for BAM complex: CM5 chip; for Kd: HBS-EP+ buffer pH 7.4 with 0.1% DMSO, BAM complex on CM5 chip (9500 RU). The protocol:
Expression and purification of the BAM complex
The E. coli BL21(DE3) cells containing all five Bam proteins (BamA, B, C, D, and E) was obtained from Xinmiao Fu of Fujian Normal University and used for expression and purification.
The BL21(DE3) cells plated onto LB-ampicillin agar plates and incubated overnight at 37 °C. A 20 mL culture incubated overnight at 37°C was prepared from a single colony in LB medium supplemented with 100 mg/L of ampicillin. The strain was inoculated into fresh LB liquid medium according to the inoculation ratio of 1:100 and incubated at 37 ℃ for about 4 hours until the OD600 reached about 1.0. The temperature of the incubator was set to 20 ℃ and then cultured for 1 hour, and 200 uM IPTG was added to induce overnight. First of all, the induced cells were collected by freezing centrifuge 3000 rpm for 30 min, and the collected cells were resuspended with Buffer 1 (20 mM Tris-HCl, pH 8.0, 150 mM NaCl), and then crushed low temperature and pressure with a high pressure crusher. The broken cells were centrifuged 1 hour at 4 °C for18000 rpm by high speed centrifuge. After centrifugation at 4 °C 18000 rpm for 1 hour, and the supernatant was discarded and the cell membrane was collected. The collected cell membranes were resuscitated with Buffer 2 (20 mM Tris-HCl, pH 8.0, 300 mM NaCl, 1% DDM) and then dissolved at 4 °C for 2 hours. After dissolving the membrane, the supernatant was collected by high speed centrifuge at 18,000 rpm. The 20 mM imidazole was added to the supernatant and incubated with a 2 mL Ni-NTA sefinoseTM resin column for 1 hour. After incubation, 10 column volumes were washed with Buffer 3 (20 mM Tris-HCl, pH 8.0, 300 mM NaCl, 0.025%DDM) containing 30 mM and 50 mM imidazole respectively. Then, the protein was eluted with Buffer 3 containing 200 mM imidazole, and the eluted protein was collected. Finally, using the 20-fold molar excess of EZ-LinkTM Sulfo-NHS-LC-LC-Biotin for BAM complex, and incubate reaction on ice for 2 hours. After the protein labeling is completed, dialysis is used to purify the labeled protein to remove the remaining unreacted and hydrolyzed biotin reagents. […]
The mobile phase was 0.1% TFA aqueous solution / acetonitrile containing 0.1%
TFA. The purified macrocyclic peptides and fluorinated macrocyclic peptides were confirmed by electrospray ionization mass spectrometry (ESI-MS).
Binding kinetics analysis by SPR
The binding kinetics between the selected peptides and EphA2 were tested by SPR using a Biacore T200 instrument (GE Healthcare) at 25 °C. In this study, the running buffer was HBS-EP+ buffer (10 mM HEPES-KOH (pH 7.4), 150 mM NaCl, 50 μM EDTA, 0.05% Tween 20) containing 0.1% DMSO. Biotin capture kit (GE Healthcare) was used to fix human EphA2 on the surface of Biacore CAP chip with a density of 1050 RU. Five different concentrations of peptides were injected at the flow rate of 30 μL/min, and their kinetic constants were determined. The binding kinetic was quantified by single cycle kinetic method. Finally, the binding sensorgrams was analyzed by Biacore evaluation software, and the standard 1:1 model was used for fitting.
The binding kinetics between the selected peptides and BAM complex were tested by SPR using […]
a Biacore T200 instrument (GE Healthcare) at 25 °C. In this study, the running buffer was HBS-EP+ […]
0.1% DMSO. The Series S Sensor Chip CM5 was used to fix BAM complex on the surface of Biacore CM5 chip with a density of 9500 RU. The binding mode was multi-cycle kinetics (one sample concentration one cycle). Finally, the binding sensorgrams was analyzed by Biacore evaluation software, and the standard 1:1 model was used for fitting.
(§1) Preliminary evaluation of the antibacterial activity of macrocyclic peptides against E. coli […]
Remove the previously preserved E. coli W3110 cells from the -80 °C refrigerator, scrape a little, inoculate it into 1 mL LB liquid medium, and culture overnight in 37°C shaker. The strain was […]

The next data set relates to mouse red blood cells. In kind it is cell-based. The protocol:
a Biacore T200 instrument (GE Healthcare) at 25 °C. In this study, the running buffer was HBS-EP+ buffer (10 mM HEPES-KOH (pH 7.4), 150 mM NaCl, 50 μM EDTA, 0.05% Tween 20) containing 0.1% DMSO. The Series S Sensor Chip CM5 was used to fix BAM complex on the surface of Biacore CM5 chip with a density of 9500 RU. The binding mode was multi-cycle kinetics (one sample concentration one cycle). Finally, the binding sensorgrams was analyzed by Biacore evaluation software, and the standard 1:1 model was used for fitting.
as §1
Remove the previously preserved E. coli W3110 cells from the -80 °C refrigerator, scrape a little, inoculate it into 1 mL LB liquid medium, and culture overnight in 37°C shaker. The strain was inoculated into fresh LB liquid medium according to the inoculation ratio of 1:100 and incubated at 37℃ until the OD600 reached about 0.47~0.53. […]
Finally, the plate was scanned and counted. […]
the samples were centrifuged at 1000 rpm for 10 min，and take pictures of the pellet after centrifugation. […] The absorbance of the supernatant at the wavelength of 545 nm was measured by microplate reader, and the percentage of hemolysis of each […]

Results on 2 molecules are retold here after PMC11310889, “Ribosomal translation of fluorinated non-canonical amino acids for de novo biologically active fluorinated macrocyclic peptides” (Chemical Science, 2024).

As usually defined, the Kd is the concentration at which binding is half-saturated. A lower Kd goes with a tighter complex.

Structures are written as SMILES. *1 amine or outer side, *2 acyl side, *3 side chain or, on linkers, in order; H or OH if unused. Where a SMILES comes first, the peptide text is derived from it. Bridges are numbered along the chain shown (N, C = ends). [ ]: non-standard residue; d: D form. X1 = O=C(C[C@H](N[*:1])c1ccc(F)cc1)[*:2]; dPhe(4-F) = N[C@H](Cc1ccc(F)cc1)C(=O)O

T1 sequence (P0A903 25-344): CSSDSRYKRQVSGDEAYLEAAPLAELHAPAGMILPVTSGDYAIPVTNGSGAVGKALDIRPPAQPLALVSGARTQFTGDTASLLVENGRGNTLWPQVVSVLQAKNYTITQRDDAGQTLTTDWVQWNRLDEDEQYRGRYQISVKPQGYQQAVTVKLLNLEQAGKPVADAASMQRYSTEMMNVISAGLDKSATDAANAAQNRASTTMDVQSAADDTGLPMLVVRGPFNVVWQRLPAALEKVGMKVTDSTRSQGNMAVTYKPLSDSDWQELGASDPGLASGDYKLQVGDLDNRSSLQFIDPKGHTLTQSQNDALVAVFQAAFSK
T1 sequence (P0AC02 20-245, further chain): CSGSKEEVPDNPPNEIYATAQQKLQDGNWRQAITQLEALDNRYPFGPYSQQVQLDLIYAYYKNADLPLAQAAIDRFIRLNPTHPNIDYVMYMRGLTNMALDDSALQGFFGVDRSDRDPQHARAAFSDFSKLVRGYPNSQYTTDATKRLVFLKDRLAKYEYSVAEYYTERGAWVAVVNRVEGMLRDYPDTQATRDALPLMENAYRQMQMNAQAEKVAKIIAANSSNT
T1 sequence (P0A937 20-113, further chain): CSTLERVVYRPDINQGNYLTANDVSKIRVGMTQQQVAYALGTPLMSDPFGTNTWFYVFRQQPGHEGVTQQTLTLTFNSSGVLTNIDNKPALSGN
T1 sequence (P77774 20-392, further chain): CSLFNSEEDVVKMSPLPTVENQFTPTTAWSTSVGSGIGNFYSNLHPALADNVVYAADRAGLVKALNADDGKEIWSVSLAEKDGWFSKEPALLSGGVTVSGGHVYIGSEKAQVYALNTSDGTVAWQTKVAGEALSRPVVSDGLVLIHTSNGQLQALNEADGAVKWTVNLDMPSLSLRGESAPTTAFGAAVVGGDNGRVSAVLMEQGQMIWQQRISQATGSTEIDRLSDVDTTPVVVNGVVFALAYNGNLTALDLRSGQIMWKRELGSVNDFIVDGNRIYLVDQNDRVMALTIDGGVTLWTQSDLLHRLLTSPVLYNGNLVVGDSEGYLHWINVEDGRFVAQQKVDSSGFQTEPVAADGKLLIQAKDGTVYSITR

In the case of `CC[C@H](C)[C@@H]1NC(=O)[C@@H](Cc2ccc(F)cc2)NC(=O)CSC[C@@H](C(=O)NCC(N)=O)NC(=O)[C@H]([C@@H](C)O)NC(=O)[C@H](Cc2c[nH]cn2)NC(=O)[C@H](CC(C)C)NC(=O)[C@H](Cc2ccc(O)cc2)NC(=O)[C@H](CC(N)=O)NC(=O)[C@@H](Cc2ccc(F)cc2)NC(=O)[C@H]([C@@H](C)O)NC(=O)[C@H](CC(C)C)NC(=O)[C@H](CO)NC(=O)[C@H](CCCCN)NC(=O)[C@H](Cc2c[nH]cn2)NC(=O)[C@H](Cc2c[nH]c3ccccc23)NC1=O` [BAM-f2] ({CH2CO}-[dPhe(4-F)]IWHKSLT[dPhe(4-F)]NYLHTCG-NH2; thioether N-15), in the data set on BAM complex, the “ka for BAM complex” value is given as 0.90 ×10 4 M-1s-1 and the Kd worked out at 755 nM. In addition, the “hemolytic toxicity towards mouse red blood cells” value in the data set with mouse red blood cells is reported as “low to negligible hemolytic toxicity”.

In the case of `CC[C@H](C)[C@@H]1NC(=O)[C@H](Cc2ccccc2)NC(=O)[C@H](Cc2c[nH]cn2)NC(=O)[C@H](CCCCN)NC(=O)[C@@H](Cc2ccc(F)cc2)NC(=O)CSC[C@@H](C(=O)NCC(N)=O)NC(=O)[C@H]([C@@H](C)CC)NC(=O)[C@@H]2CCCN2C(=O)[C@H](CO)NC(=O)[C@H](CCCNC(=N)N)NC(=O)[C@H](Cc2ccc(O)cc2)NC(=O)C[C@@H](c2ccc(F)cc2)NC(=O)[C@H](Cc2ccc(O)cc2)NC1=O` [BAM-β3] ({CH2CO}-[dPhe(4-F)]KHFIY[X1]YRSPICG-NH2; thioether N-13), in the data set on BAM complex, the “ka for BAM complex” value was 2.54 ×10 4 M-1s-1 and the Kd worked out at 453 nM. Further, the “hemolytic toxicity towards mouse red blood cells” value in the data set with mouse red blood cells is “low to negligible hemolytic toxicity”.
